# Tested on: HBV
# Test: HBV inhibition assay in HepAD38 cells (extracellular HBV DNA by direct qPCR)
# Assay type: cell-based
# Settings: Hepatitis B virus, 8-point dose-response curve, 96 hours, read-out: HBV inh EC50
# From the text: HepAD38 cell line (Ladner et al., Antimicrob Agents Chemother, 1997, 41, 1715-20) was used for HBV inhibition assays. HepAD38 is a subclone, derived from Hepatoblastoma cell line HepG2 (ATCC® Number: HB-8065™), that expresses HBV genome under the control of a tetracycline-responsive promoter in a TET-OFF system: addition of tetracycline suppresses HBV replication, while its removal switches on the process allowing HBV viral particles release in the cell supernatant. HepAD38 cell line is maintained in DMEM/F12, supplemented with 10% of fetal bovine serum, 1% of glutamine, 1% of penicillin/streptomycin, 0.4 mg/ml G418 and 0,3 ug/ml tetracycline. For the HBV inhibition assay, doxycycline-free medium is used in order to allow virion production.
# HBV inhibition activity in vitro was performed in 96 multiwell plates. During the initial (primary) screening compounds were first tested in triplicates at concentrations of 0.1µM, 0.5µM amd 1µM. For selected compounds, an 8-point dose-response curve can be obtained using 1:2 serial dilutions (starting from 2.5 µM, 1.25µM or 0.4 µM, depending on the degree of inhibition observed during the primary screening). From the dose-response curves, half maximal effective concentration (EC50) can be calculated (see also below).
# In more detail, compounds - typically dissolved in DMSO stock solutions - are diluted to 2x the final desired concentration in 100 µl of the above medium (without doxycycline) and plated in three replicates in the 96-well plates.
# Simultaneously, HepAD38 cells - extensively pre-washed in tetracycline-free medium in order to induce HBV production - are suspended at 2*10^4 cells in 100 µl of tetracycline-free medium and added to each well of the plate, to yield a final assay volume of 200 µl DMSO - used for stock solutions and compounds dilutions - which is always present in the assays at a final concentration of 0.5%.
# Plates are then incubated 96 hours at 37°C and then subjected to cell viability assay in order to define compounds cytotoxicity and to extracellular HBV quantification in order to evaluate antiviral activity of compounds. Cytotoxicity is assessed by a commercial fluorescence assay that measures the metabolic activity of cells, directly related to cell viability (Cell Titer Blue, Promega). Anti-HBV activity was evaluated by quantification of extracellular HBV DNA with direct qPCR. In particular, supernatant was collected and centrifuged for cell debris clarification, viral DNA was extracted from virions by addition of lysis buffer (1 mM 1,4-dithiothreitol, 0.2% sodium dodecyl sulphate) and incubated at 95°C for 10 min. Samples were then diluted 1:40 and real time PCR amplification was performed with SYBR green assay (Power SYBR™ Green PCR Master Mix-Thermo Fisher Scientific) and specific HBV primer (HBV-DF:5'-[…]-3' (SEQ ID No. 1), HBV-DR:5'-[…]-3' (SEQ ID No. 2)).
# All HBV inhibition or antiviral activity data are typically reported in percent (%) relative to a non-treated reference sample. Excel and Graphpad Prism programs are typically used for data elaboration and EC50 calculation.
row,SMILES,EC50
1,"O=C(Nc1cc(F)c(F)c(F)c1)c1ccc2c(c1)S(=O)(=O)NC(c1c(F)cccc1F)N2 (centres unmarked) [Example E35, 3-(2,6-difluorophenyl)-N-(3,4,5-trifluorophenyl)-3,4-dihydro-2H-benzo[e][1,2,4]thiadiazine-7-carboxamide 1,1-dioxide]",< 1000 nM

# Same assay, conditions: Hepatitis B virus, compound at 0.5 µM, 96 hours, relative to non-treated reference, read-out: Anti HBV Activity (conc µM)
row,SMILES,inhibition at 0.5 µM
1,"O=C(Nc1cc(F)c(F)c(F)c1)c1ccc2c(c1)S(=O)(=O)N(O)CN2 [Example E5, 2-hydroxy-N-(3,4,5-trifluorophenyl)-3,4-dihydro-2H-benzo[e][1,2,4]thiadiazine-7-carboxamide 1,1-dioxide]",< 50%
2,"CC(C)(C)OC(=O)N1CC[C@H](N2C(=O)Nc3ccc(C(=O)Nc4cc(F)c(F)c(F)c4)cc3S2(=O)=O)C1 [Example E83, tert-butyl (S)-3-(1,1-dioxido-3-oxo-7-((3,4,5-trifluorophenyl)carbamoyl)-3,4-dihydro-2H-benzo[e][1,2,4]thiadiazin-2-yl)pyrrolidine-1-carboxylate]",< 50%
3,"[2H]C1([2H])Nc2ccc(C(=O)Nc3cc(F)c(F)c(F)c3)cc2S(=O)(=O)N1 [Example E2, N-(3,4,5-trifluorophenyl)-3,4-dihydro-2H-benzo[e][1,2,4]thiadiazine-3,3-d2-7-carboxamide 1,1-dioxide]",> 50%
4,"O=C(Nc1cc(F)c(F)c(F)c1)c1ccc2c(c1)S(=O)(=O)N([C@H]1CC[C@@H](O)CC1)C(=O)N2 [Example E87, cis-2-(4-hydroxycyclohexyl)-3-oxo-N-(3,4,5-trifluorophenyl)-3,4-dihydro-2H-benzo[e][1,2,4]thiadiazine-7-carboxamide 1,1-dioxide]",> 50%
5,"O=C(Nc1cc(F)c(F)c(F)c1)c1ccc2c(c1)S(=O)(=O)NCN2O [Example E4, 4-hydroxy-N-(3,4,5-trifluorophenyl)-3,4-dihydro-2H-benzo[e][1,2,4]thiadiazine-7-carboxamide 1,1-dioxide]",< 50%
6,"O=C(Nc1cc(F)c(F)c(F)c1)c1ccc2c(c1)S(=O)(=O)N(C1COC1)C(=O)N2 [Example E82, 2-(oxetan-3-yl)-3-oxo-N-(3,4,5-trifluorophenyl)-3,4-dihydro-2H-benzo[e][1,2,4]thiadiazine-7-carboxamide 1,1-dioxide]",> 50%
7,"O=C(Nc1cc(F)c(F)c(F)c1)c1ccc2c(c1)S(=O)(=O)NC([C@@H](O)CO)N2 (stereo partly drawn) [Example E26, 3-((R)-1,2-dihydroxyethyl)-N-(3,4,5-trifluorophenyl)-3,4-dihydro-2H-benzo[e][1,2,4]thiadiazine-7-carboxamide 1,1-dioxide]",> 50%
8,"O=C(Nc1cc(F)c(F)c(F)c1)c1ccc2c(c1)S(=O)(=O)N([C@H]1C[C@H](O)C1)CN2 [Example E127, Trans-2-(3-hydroxycyclobutyl)-N-(3,4,5-trifluorophenyl)-3,4-dihydro-2H-benzo[e][1,2,4]thiadiazine-7-carboxamide 1,1-dioxide]",< 50%

# Same assay, conditions: Hepatitis B virus, compound at 1 µM, 96 hours, relative to non-treated reference, read-out: Anti HBV Activity (conc µM)
row,SMILES,inhibition at 1 µM
1,"CC(C)(C)OC(=O)N1CCN2C(COc3ccc(C(=O)Nc4cc(F)c(F)c(F)c4)cc3S2(=O)=O)C1 (centres unmarked) [Example E114, tert-butyl 8-((3,4,5-trifluorophenyl)carbamoyl)-3,4,12,12a-tetrahydrobenzo[b]pyrazino[1,2-e][1,4,5]oxathiazepine-2(1H)-carboxylate 6,6-dioxide]",< 50%
2,"O=C(Nc1cc(F)c(F)c(F)c1)c1ccc2c(c1)S(=O)(=O)NC(c1cnc[nH]1)N2 (centres unmarked) [Example E51, 3-(1H-imidazol-5-yl)-N-(3,4,5-trifluorophenyl)-3,4-dihydro-2H-benzo[e][1,2,4]thiadiazine-7-carboxamide 1,1-dioxide]",< 50%
3,"O=C(Nc1cc(F)c(F)c(F)c1)c1ccc2c(c1)S(=O)(=O)N1CCC(C1)O2 (centres unmarked) [Example E118, N-(3,4,5-trifluorophenyl)-4,5-dihydro-3H-2,5-methanobenzo[b][1,4,5]oxathiazocine-9-carboxamide 1,1-dioxide]",< 50%
4,"O=C(Nc1cc(F)c(F)c(F)c1)c1ccc2c(c1)S(=O)(=O)NC(c1cccnc1)N2 (centres unmarked) [Example E48, 3-(pyridin-3-yl)-N-(3,4,5-trifluorophenyl)-3,4-dihydro-2H-benzo[e][1,2,4]thiadiazine-7-carboxamide 1,1-dioxide]",> 50%
5,"O=C(Nc1cc(F)c(F)c(F)c1)c1ccc2c(c1)S(=O)(=O)N[C@@H]1CCC[C@@H]1N2 [Example E136, (3aR,10aS)-N-(3,4,5-trifluorophenyl)-2,3,3a,4,10,10a-hexahydro-1H-benzo[f]cyclopenta[c][1,2,5]thiadiazepine-7-carboxamide 5,5-dioxide]",< 50%
6,"CC1Nc2ccc(C(=O)Nc3ccc(F)c(F)c3)cc2S(=O)(=O)N1 (centres unmarked) [Example E20, N-(3,4-difluorophenyl)-3-methyl-3,4-dihydro-2H-benzo[e][1,2,4]thiadiazine-7-carboxamide 1,1-dioxide]",> 50%
7,"O=C(Nc1cc(F)c(F)c(F)c1)c1ccc2c(c1)S(=O)(=O)N1CCCC[C@@H]1CN2 [Example E104, (R)-N-(3,4,5-trifluorophenyl)-1,3,4,11,12,12a-hexahydro-2H-benzo[f]pyrido[1,2-b][1,2,5]thiadiazepine-8-carboxamide 6,6-dioxide]",> 50%
8,"O=C(Nc1cc(F)c(F)c(F)c1)c1ccc2c(c1)S(=O)(=O)NC(c1cccs1)N2 (centres unmarked) [Example E43, 3-(thiophen-2-yl)-N-(3,4,5-trifluorophenyl)-3,4-dihydro-2H-benzo[e][1,2,4]thiadiazine-7-carboxamide 1,1-dioxide]",> 50%
9,"CC1(c2ccc(Cl)cn2)Nc2ccc(C(=O)Nc3cc(F)c(F)c(F)c3)cc2S(=O)(=O)N1 (centres unmarked) [Example E53, 3-(5-chloropyridin-2-yl)-3-methyl-N-(3,4,5-trifluorophenyl)-3,4-dihydro-2H-benzo[e][1,2,4]thiadiazine-7-carboxamide 1,1-dioxide]",> 50%
10,"CN1C(=O)Nc2ccc(C(=O)Nc3cc(F)c(F)c(F)c3)cc2S1(=O)=O [Example E76, 2-methyl-3-oxo-N-(3,4,5-trifluorophenyl)-3,4-dihydro-2H-benzo[e][1,2,4]thiadiazine-7-carboxamide 1,1-dioxide]",> 50%
11,"O=C(Nc1cc(F)c(F)c(F)c1)c1ccc2c(c1)S(=O)(=O)N1CCCC[C@H]1CO2 [Example E113, (S)-N-(3,4,5-trifluorophenyl)-1,2,3,4,12,12a-hexahydrobenzo[b]pyrido[1,2-e][1,4,5]oxathiazepine-8-carboxamide 6,6-dioxide]",< 50%
12,"O=C(Nc1cc(F)c(F)c(F)c1)c1ccc2c(c1)S(=O)(=O)N(C1CC1)C(=O)N2 [Example E79, 2-cyclopropyl-3-oxo-N-(3,4,5-trifluorophenyl)-3,4-dihydro-2H-benzo[e][1,2,4]thiadiazine-7-carboxamide 1,1-dioxide]",< 50%
13,"O=C(Nc1cc(F)c(F)c(F)c1)c1ccc2c(c1)S(=O)(=O)NC(c1cncs1)N2 (centres unmarked) [Example E40, 3-(thiazol-5-yl)-N-(3,4,5-trifluorophenyl)-3,4-dihydro-2H-benzo[e][1,2,4]thiadiazine-7-carboxamide 1,1-dioxide]",> 50%
14,"O=C(Nc1ccc(F)c(F)c1)c1ccc2c(c1)S(=O)(=O)NC1(COC1)N2 [Example E11, N-(3,4-difluorophenyl)-2H,4H-spiro[benzo[e][1,2,4]thiadiazine-3,3'-oxetane]-7-carboxamide 1,1-dioxide]",< 50%

# — EP3597653A1, “CYCLIC INHIBITORS OF HEPATITIS B VIRUS” (IRBM S.P.A., priority 2018, dated 2020)
